pIC50: −log10 of the molar value.
Key:
Type in all cases: biochemical
AXL = target: T1, AXL (Homo sapiens, UniProt P30530); assay: AXL enzymatic assay (ADP-Glo); conditions: purified kinase, ATP 50 μM, read-out: AXL Enzymatic Inhibition (%)
T1 sequence (P30530 26-894): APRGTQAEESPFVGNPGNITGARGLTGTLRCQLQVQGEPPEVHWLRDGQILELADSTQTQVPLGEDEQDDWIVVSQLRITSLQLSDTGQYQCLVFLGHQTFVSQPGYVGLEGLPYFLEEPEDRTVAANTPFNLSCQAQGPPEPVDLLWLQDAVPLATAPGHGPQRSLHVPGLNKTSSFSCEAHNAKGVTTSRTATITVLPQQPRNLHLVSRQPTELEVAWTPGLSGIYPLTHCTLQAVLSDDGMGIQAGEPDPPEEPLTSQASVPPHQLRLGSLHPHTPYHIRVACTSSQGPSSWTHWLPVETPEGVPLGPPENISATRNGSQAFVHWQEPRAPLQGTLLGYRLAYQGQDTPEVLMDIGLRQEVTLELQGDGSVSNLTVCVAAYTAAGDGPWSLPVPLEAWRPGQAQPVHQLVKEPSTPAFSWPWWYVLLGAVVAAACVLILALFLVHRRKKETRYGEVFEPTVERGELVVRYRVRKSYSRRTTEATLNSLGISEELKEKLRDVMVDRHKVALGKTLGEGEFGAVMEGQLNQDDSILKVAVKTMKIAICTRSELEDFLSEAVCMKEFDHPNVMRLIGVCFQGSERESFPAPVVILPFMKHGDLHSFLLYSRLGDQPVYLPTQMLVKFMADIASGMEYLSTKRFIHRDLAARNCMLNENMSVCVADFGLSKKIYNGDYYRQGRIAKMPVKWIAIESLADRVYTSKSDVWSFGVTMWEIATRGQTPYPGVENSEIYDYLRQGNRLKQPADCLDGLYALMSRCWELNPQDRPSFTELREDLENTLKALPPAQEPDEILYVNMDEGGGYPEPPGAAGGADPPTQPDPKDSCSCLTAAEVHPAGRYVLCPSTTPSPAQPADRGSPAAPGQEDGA

MERTK = target: T2, MERTK (Homo sapiens, UniProt Q12866); assay: MERTK enzymatic assay (Kinase Glo); conditions: purified kinase, ATP 12 μM, read-out: MER Enzymatic Inhibition (%)
T2 sequence (Q12866 21-999): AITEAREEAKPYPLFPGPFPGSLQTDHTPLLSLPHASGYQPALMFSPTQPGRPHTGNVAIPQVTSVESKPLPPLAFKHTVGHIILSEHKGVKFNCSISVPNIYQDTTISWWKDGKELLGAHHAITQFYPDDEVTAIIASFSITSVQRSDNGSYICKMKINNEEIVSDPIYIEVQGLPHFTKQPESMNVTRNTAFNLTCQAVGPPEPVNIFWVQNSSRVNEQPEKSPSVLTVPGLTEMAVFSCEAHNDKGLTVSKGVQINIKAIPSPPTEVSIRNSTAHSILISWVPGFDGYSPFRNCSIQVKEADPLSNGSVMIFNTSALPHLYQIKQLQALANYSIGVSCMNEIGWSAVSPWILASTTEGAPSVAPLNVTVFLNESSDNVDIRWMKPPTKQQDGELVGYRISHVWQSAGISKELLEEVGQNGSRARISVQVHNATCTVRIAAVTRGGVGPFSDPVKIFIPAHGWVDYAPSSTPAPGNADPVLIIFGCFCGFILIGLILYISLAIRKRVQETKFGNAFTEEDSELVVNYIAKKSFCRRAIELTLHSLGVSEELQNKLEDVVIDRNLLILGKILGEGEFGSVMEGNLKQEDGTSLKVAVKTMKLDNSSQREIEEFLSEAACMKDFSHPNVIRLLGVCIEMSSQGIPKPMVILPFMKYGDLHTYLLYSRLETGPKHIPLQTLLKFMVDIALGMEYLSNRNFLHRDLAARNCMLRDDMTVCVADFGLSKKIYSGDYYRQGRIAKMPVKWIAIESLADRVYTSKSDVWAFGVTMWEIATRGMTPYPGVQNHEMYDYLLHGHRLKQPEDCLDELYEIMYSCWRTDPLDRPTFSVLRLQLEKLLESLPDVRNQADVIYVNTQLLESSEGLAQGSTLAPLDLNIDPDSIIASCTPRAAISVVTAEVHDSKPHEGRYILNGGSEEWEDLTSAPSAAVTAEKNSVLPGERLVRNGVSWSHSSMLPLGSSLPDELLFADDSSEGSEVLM

MER/AXL = assay: Dual MER/AXL inhibition (enzymatic); conditions: class for both MER and AXL

SMILES | pIC50 (AXL) | pIC50 (MERTK) | pIC50 (MER/AXL)
Cn1cc(-c2oc3ncnc(Oc4ccc(NC(=O)c5cccn(-c6ccc(F)cc6F)c5=O)cc4)c3c2-c2cccc(N)c2)cn1 [Compound 92] | > 7.70 | 7.00 to 7.70 | 7.00 to 7.70
CC(=O)Nc1cccc(-c2c(-c3cnn(C)c3)oc3ncnc(Oc4ccc(NC(=O)c5cccn(-c6ccccc6)c5=O)cc4)c23)c1 [Compound 56] | > 7.70 | 7.00 to 7.70 | 7.00 to 7.70
Cn1cc(-c2cc3c(Oc4ccc(NC(=O)c5cccn(-c6ccc(F)cc6)c5=O)cc4)ncnc3[nH]2)cn1 [Compound 78] | > 7.70 | 7.00 to 7.70 | 7.00 to 7.70
CN(C)Cc1cccc(-c2c[nH]c3ncnc(Oc4ccc(NC(=O)c5cn(C)n(-c6ccc(F)cc6)c5=O)cc4)c23)c1 [Compound 134] | 4.30 to 7.00 | 4.30 to 7.00 | 4.30 to 7.00
Cn1cc(-c2cc3c(Oc4ccc(NC(=O)c5cccn(C6CCCCC6)c5=O)cc4)ncnc3o2)cn1 [Compound 86] | 4.30 to 7.00 | 4.30 to 7.00 | 4.30 to 7.00
C=CC(=O)Nc1cccc(-c2c(-c3cnn(C)c3)oc3ncnc(Oc4ccc(NC(=O)c5cccn(-c6ccc(F)cc6)c5=O)cc4)c23)c1 [Compound 12] | 4.30 to 7.00 | 4.30 to 7.00 | 4.30 to 7.00
O=C(Nc1ccc(Oc2ncnc3[nH]c(-c4ccsc4)cc23)cc1)c1cccn(-c2ccc(F)cc2)c1=O [Compound 79] | 4.30 to 7.00 | 4.30 to 7.00 | 4.30 to 7.00
Cn1cc(-c2oc3ncnc(Oc4ccc(NC(=O)c5cc(-c6ccc(F)cc6)on5)cc4)c3c2-c2cccc(N)c2)cn1 [Compound 115] | 4.30 to 7.00 | 4.30 to 7.00 | 4.30 to 7.00
CC(=O)Nc1cccc(-c2c(-c3cn(C)nc3C)oc3ncnc(Oc4ccc(NC(=O)c5cccn(-c6ccc(F)cc6)c5=O)cc4)c23)c1 [Compound 27] | > 7.70 | 4.30 to 7.00 | 4.30 to 7.00
Cn1cc(-c2oc3ncnc(Oc4ccc(NC(=O)c5cn(C)n(-c6ccc(F)cc6)c5=O)cc4)c3c2-c2cccc(N3CCCCC3=O)c2)cn1 [Compound 176] | 4.30 to 7.00 | 4.30 to 7.00 | 4.30 to 7.00
O=C(Nc1ccc(Oc2nc(Cl)nc3[nH]ccc23)cc1)c1cccn(-c2ccc(F)cc2)c1=O [Compound 5] | 4.30 to 7.00 | 4.30 to 7.00 | 4.30 to 7.00
Cn1cc(-c2oc3ncnc(Oc4ccc(NC(=O)c5cccn(C6CCCCC6)c5=O)cc4)c3c2-c2cccc(N)c2)cn1 [Compound 83] | 4.30 to 7.00 | 4.30 to 7.00 | 4.30 to 7.00
Cc1cc(F)ccc1-n1cccc(C(=O)Nc2ccc(Oc3ncnc4oc(-c5cnn(C)c5)c(-c5cccc(N)c5)c34)cc2)c1=O [Compound 73] | > 7.70 | 7.00 to 7.70 | 7.00 to 7.70
CC(=O)Nc1cccc(-c2c(-c3cnn(C)c3)oc3ncnc(Oc4ccc(NC(=O)c5c(C)n(C)n(-c6ccc(F)cc6)c5=O)cc4)c23)c1 [Compound 122] | > 7.70 | 4.30 to 7.00 | 4.30 to 7.00
Cn1cc(-c2oc3ncnc(Oc4ccc(NC(=O)c5cn(C)n(-c6ccc(F)cc6)c5=O)cc4)c3c2-c2ccccc2N)cn1 [Compound 141] | 4.30 to 7.00 | 4.30 to 7.00 | 4.30 to 7.00
CN(C)c1cccc(-c2c[nH]c3ncnc(Oc4ccc(NC(=O)c5cccn(-c6ccc(F)cc6)c5=O)cc4)c23)c1 [Compound 21] | 4.30 to 7.00 | 4.30 to 7.00 | 4.30 to 7.00
CC(=O)Nc1cccc(-c2c(-c3cnn(C)c3)oc3ncnc(Oc4ccc(NC(=O)c5ccc(-c6cccc(F)c6)o5)cc4)c23)c1 [Compound 120] | 4.30 to 7.00 | 4.30 to 7.00 | 4.30 to 7.00
Cn1cc(-c2oc3ncnc(Oc4ccc(NC(=O)c5cccn(-c6ccc(F)cc6)c5=O)nc4)c3c2-c2cccc(N)c2)cn1 [Compound 52] | > 7.70 | 7.00 to 7.70 | 7.00 to 7.70

The remaining lines, values ahead:

pIC50 (AXL) | pIC50 (MERTK) | pIC50 (MER/AXL) | SMILES
> 7.70 | > 7.70 | > 7.70 | CN(C)Cc1cccc(-c2c[nH]c3ncnc(Oc4ccc(NC(=O)c5cccn(-c6ccc(F)cc6)c5=O)cc4)c23)c1 [Compound 82]
4.30 to 7.00 | 4.30 to 7.00 | 4.30 to 7.00 | CCNc1cccc(-c2c(-c3cnn(C)c3)oc3ncnc(Oc4ccc(NC(=O)c5cccn(-c6ccc(F)cc6)c5=O)cc4)c23)c1 [Compound 177]
> 7.70 | 7.00 to 7.70 | 7.00 to 7.70 | Cc1cc(F)ccc1-n1cccc(C(=O)Nc2ccc(Oc3ncnc4oc(-c5cnn(C)c5)c(-c5cccc(CN(C)C)c5)c34)cc2)c1=O [Compound 98]
> 7.70 | 7.00 to 7.70 | 7.00 to 7.70 | Cn1cc(-c2oc3ncnc(Oc4ccc(NC(=O)c5cccn(-c6cccc(F)c6)c5=O)cc4)c3c2-c2cccc(N)c2)cn1 [Compound 55]
> 7.70 | 7.00 to 7.70 | 7.00 to 7.70 | CC(=O)Nc1cccc(-c2c(-c3cn[nH]c3)oc3ncnc(Oc4ccc(NC(=O)c5cccn(-c6ccc(F)cc6)c5=O)cc4)c23)c1 [Compound 40]
> 7.70 | 4.30 to 7.00 | 4.30 to 7.00 | O=C(Nc1ccc(Oc2ncnc3[nH]cc(C#Cc4ccccc4)c23)cc1)c1cccn(-c2ccc(F)cc2)c1=O [Compound 18]
4.30 to 7.00 | 4.30 to 7.00 | 4.30 to 7.00 | CCOc1ccn(-c2ccc(F)cc2)c(=O)c1C(=O)Nc1ccc(Oc2ncnc3[nH]ccc23)cc1 [Compound 6]
7.00 to 7.70 | 4.30 to 7.00 | 4.30 to 7.00 | CNc1cccc(-c2c[nH]c3ncnc(Oc4ccc(NC(=O)c5cccn(-c6ccc(F)cc6)c5=O)cc4)c23)c1 [Compound 22]
4.30 to 7.00 | 4.30 to 7.00 | 4.30 to 7.00 | Cn1cc(-c2oc3ncnc(Oc4ccc(NC(=O)c5cccn(-c6ccc(F)cc6)c5=O)cc4)c3c2-c2cccc(N3CCCCC3=O)c2)cn1 [Compound 175]
4.30 to 7.00 | 4.30 to 7.00 | 4.30 to 7.00 | O=C(Nc1ccc(Oc2ncnc3[nH]c(-c4ccccc4)cc23)cc1)c1cccn(-c2ccc(F)cc2)c1=O [Compound 76]
> 7.70 | 4.30 to 7.00 | 4.30 to 7.00 | O=C(Nc1ccc(Oc2ncnc3[nH]cc(-c4cccnc4)c23)cc1)c1cccn(-c2ccc(F)cc2)c1=O [Compound 16]
4.30 to 7.00 | 4.30 to 7.00 | 4.30 to 7.00 | COc1nn(-c2ccc(C)cc2)cc1C(=O)Nc1ccc(Oc2ncnc3oc(-c4cnn(C)c4)c(-c4cccc(N)c4)c23)cc1 [Compound 136]
4.30 to 7.00 | 4.30 to 7.00 | 4.30 to 7.00 | CC(=O)Nc1cccc(-c2c[nH]c3ncnc(Oc4ccc(NC(=O)c5cn(C)n(-c6ccc(F)cc6)c5=O)cc4)c23)c1 [Compound 125]
7.00 to 7.70 | 4.30 to 7.00 | 4.30 to 7.00 | CC(=O)Nc1cccc(-c2coc3ncnc(Oc4ccc(NC(=O)c5cccn(-c6ccc(F)cc6)c5=O)cc4)c23)c1 [Compound 47]
> 7.70 | > 7.70 | > 7.70 | CC(=O)Nc1cccc(-c2c(-c3cnn(C)c3)oc3ncnc(Oc4ccc(NC(=O)c5ccc(C)n(-c6ccc(F)cc6)c5=O)cc4)c23)c1 [Compound 70]
4.30 to 7.00 | 4.30 to 7.00 | 4.30 to 7.00 | Cn1cc(-c2oc3ncnc(Oc4ccc(NC(=O)c5cccn(C)c5=O)cc4)c3c2-c2cccc(N)c2)cn1 [Compound 66]

Reference: patent US20260070911A1, “INHIBITORS OF TAM RECEPTORS” (National Health Research Institutes, priority 2022, published 2026)
